Test results from patent US10590086B2, “Pharmaceutical compound” (IOmet Pharma Ltd., priority 2014, dated 2020).

What was measured:
[1] = biological target: T1, TDO (Homo sapiens, UniProt P48775); assay: hTDO biochemical coupled assay; settings: 330 μM L-tryptophan, read-out: hTDO biochemical assay pIC50 (converted)
Description: Two different assays were employed: 1. a cell-based assay for detecting the effect of test compounds on kynurenine production in two different cancer cell types. This assay utilised cancer cells which expressed either TDO or IDO and as such was used as a means of testing compound activity at these two enzymes in a cell-based context. 2. a TDO and IDO biochemical coupled assay which utilised recombinantly produced and purified TDO and IDO enzymes in combination with the enzyme formamidase. This coupled enzyme system allowed conversion of N-formylkynurenine produced by TDO or IDO activity to kynurenine which was then quantified by fluorescence following addition of Erhlich's Reagent The protocols for these are set out below.

[2] = biological target: T2, IDO (Homo sapiens, UniProt P14902); assay: hIDO biochemical coupled assay; settings: 45 μM L-tryptophan, read-out: hIDO biochemical assay pIC50 (converted)
[3] = biological target: T1, TDO; assay: A172 kynurenine cell-based assay; set-up: This assay utilised cancer cells which expressed either TDO or IDO; endogenous in cells; host or cells: A172 (human glioblastoma); settings: A172 human glioblastoma cells, 48 hours, read-out: A172 Kynurenine cell based assay pIC50 (converted)
How it was run: (§1)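 Readout: […] of cell supernatant 5 min after Erhlich's reagent, reporting kynurenine. Cells: A172 (TDO) or SKOV3 + 500 ng/ml IFN-γ (IDO), 48 h, 37° C, ± compound. Medium: phenol red-free RPMI, 10% FCS, 2 mM L-glutamine, 500 μM L-tryptophan.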

[4] = biological target: T2, IDO; assay: SKOV3 kynurenine cell-based assay (IDO induced by IFN-γ); set-up: IDO expression was induced in the SKOV3 cells by the addition of 500 ng/ml IFN-γ; endogenous in cells; host or cells: SKOV3 (human ovarian adenocarcinoma), induced with IFN-γ; settings: 48 hours, read-out: SKOV3 Kynurenine cell based assay pIC50 (converted)
How it was run: as §1

[5] = SKOV3 human ovarian adenocarcinoma cells, 500 ng/ml IFN-γ, 500 μM L-tryptophan
[6] = SKOV3 cells, IDO induced by 500 ng/ml IFN-γ

T2 sequence (P14902 whole entry): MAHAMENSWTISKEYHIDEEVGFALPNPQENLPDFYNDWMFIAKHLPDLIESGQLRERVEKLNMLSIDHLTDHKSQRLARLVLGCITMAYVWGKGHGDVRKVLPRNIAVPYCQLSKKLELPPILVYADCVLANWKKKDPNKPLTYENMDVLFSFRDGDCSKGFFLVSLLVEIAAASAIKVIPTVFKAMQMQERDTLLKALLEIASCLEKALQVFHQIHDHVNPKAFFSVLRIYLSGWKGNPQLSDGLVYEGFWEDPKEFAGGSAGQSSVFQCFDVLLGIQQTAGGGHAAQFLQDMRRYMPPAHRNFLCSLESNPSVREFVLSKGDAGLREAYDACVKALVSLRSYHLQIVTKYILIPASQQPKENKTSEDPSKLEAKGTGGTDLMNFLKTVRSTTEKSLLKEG
T1 sequence (P48775 whole entry): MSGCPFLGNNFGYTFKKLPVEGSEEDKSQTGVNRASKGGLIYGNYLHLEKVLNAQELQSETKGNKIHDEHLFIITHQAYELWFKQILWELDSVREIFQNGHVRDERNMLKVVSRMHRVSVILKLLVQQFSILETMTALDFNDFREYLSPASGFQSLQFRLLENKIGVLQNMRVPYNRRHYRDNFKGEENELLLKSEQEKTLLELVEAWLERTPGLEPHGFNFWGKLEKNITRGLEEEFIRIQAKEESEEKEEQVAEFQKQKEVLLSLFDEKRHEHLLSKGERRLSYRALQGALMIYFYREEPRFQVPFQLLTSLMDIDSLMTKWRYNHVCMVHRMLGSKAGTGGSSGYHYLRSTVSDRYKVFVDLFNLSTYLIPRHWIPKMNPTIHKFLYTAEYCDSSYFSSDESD

SMILES | IC50 ([1]; 17 minutes, room temperature) [µM] | IC50 ([2]; 17 minutes, room temperature) [µM] | IC50 ([3]; 500 μM L-tryptophan) [µM] | IC50 [4, 5] [µM] | IC50 [1] [µM] | IC50 [2] [µM] | IC50 [3] [µM] | IC50 [4, 6] [µM]
Clc1cc(N2CCc3[nH]ncc3C2)c2cn[nH]c2c1 [Compound 328] | < 3.16 | > 100 | < 3.16 | 3.24 to 31.6 | – | – | – | –
CNC(=O)C1CCN(c2cc(Cl)cc3[nH]ncc23)CC1 [Compound 249] | < 3.16 | 3.24 to 31.6 | < 3.16 | 3.24 to 31.6 | – | – | – | –
COc1cc(S(C)(=O)=O)ccc1-c1cc(Cl)cc2[nH]ncc12 [Compound 266] | < 3.16 | > 100 | < 3.16 | 3.24 to 31.6 | – | – | – | –
CC(=O)N(C)c1cc(C2CCN(S(C)(=O)=O)CC2)c2cn[nH]c2c1 [Compound 337] | > 100 | > 100 | > 100 | 3.24 to 31.6 | – | – | – | –
CC(=O)N1CCN(c2cc(Cl)cc3c(N)n[nH]c23)CC1(C)C [Compound 307] | < 3.16 | < 3.16 | > 100 | 3.24 to 31.6 | – | – | – | –
CC1(C)CN(c2cc(Cl)cc3[nH]ncc23)CCN1S(C)(=O)=O [Compound 45, 6-chloro-4-(3,3-dimethyl-4-(methylsulfonyl)piperazin-1-yl)-1H-indazole] | < 3.16 | < 3.16 | < 3.16 | < 3.16 | 0.263 | 0.447 | 0.01 | 0.372
CN1C(=O)[C@@H]2CC[C@H]1CN(c1cc(C(F)(F)F)cc3[nH]ncc13)C2 [Compound 447] | < 3.16 | 3.24 to 31.6 | < 3.16 | > 100 | – | – | – | –
CS(=O)(=O)c1ccc(-c2cc(Cl)cc3[nH]ncc23)cc1 [Compound 192, 6-chloro-4-(4-(methylsulfonyl)phenyl)-1H-indazole] | < 3.16 | 3.24 to 31.6 | < 3.16 | 3.24 to 31.6 | 0.129 | 15.5 | 0.0245 | 5.62
CS(=O)(=O)N1C2COCC1CN(c1cc(Cl)cc3[nH]ncc13)C2 [Compound 314] | < 3.16 | 32.4 to 100 | < 3.16 | 32.4 to 100 | – | – | – | –
CCS(=O)(=O)N1CCC(c2cc(Cl)cc3[nH]ncc23)CC1 [Compound 423] | < 3.16 | < 3.16 | < 3.16 | 3.24 to 31.6 | – | – | – | –
CNC(=O)CN1CCN(c2cc(Cl)cc3[nH]ncc23)CC1(C)C [Compound 413] | < 3.16 | < 3.16 | < 3.16 | 3.24 to 31.6 | – | – | – | –
CNC(=O)c1ccc(N2CCN(c3cc(Cl)cc4[nH]ncc34)CC2)cc1 [Compound 445] | < 3.16 | > 100 | < 3.16 | < 3.16 | – | – | – | –
CN1CCN(C2CCN(c3cc(Cl)cc4[nH]ncc34)CC2)C1=O [Compound 411] | < 3.16 | > 100 | < 3.16 | < 3.16 | – | – | – | –
CS(=O)(=O)N1CC2(CN(c3cc(Cl)cc4[nH]ncc34)C2)C1 [Compound 395] | < 3.16 | > 100 | < 3.16 | < 3.16 | – | – | – | –
CS(=O)(=O)NC1CN(c2cc(Cl)cc3[nH]ncc23)C1 [Compound 431] | < 3.16 | < 3.16 | < 3.16 | > 100 | – | – | – | –
CCN1C(=O)NC2(CCN(c3cc(Cl)cc4[nH]ncc34)CC2)C1=O [Compound 315] | < 3.16 | < 3.16 | < 3.16 | < 3.16 | – | – | – | –
CN(C)C(=O)C1CCCN(c2cc(Cl)cc3[nH]ncc23)C1 (stereo not drawn) [Compound 209] | 32.4 to 100 | > 100 | 32.4 to 100 | 32.4 to 100 | – | – | – | –

SMILES | IC50 ([1]; 17 minutes, room temperature) [µM] | IC50 ([2]; 17 minutes, room temperature) [µM] | IC50 ([3]; 500 μM L-tryptophan) [µM] | IC50 [4, 5] [µM] | IC50 [1] [µM] | IC50 [2] [µM] | IC50 [3] [µM] | IC50 [4, 6] [µM]
Clc1cc(N2CCC(c3ncco3)CC2)c2cn[nH]c2c1 [Compound 429] | < 3.16 | 3.24 to 31.6 | < 3.16 | 3.24 to 31.6 | – | – | – | –
CN1C(=O)[C@@H]2CC[C@H]1CN(c1cc(Br)cc3[nH]ncc13)C2 [Compound 455] | < 3.16 | 3.24 to 31.6 | < 3.16 | > 100 | – | – | – | –
CS(=O)(=O)N1CCN(c2cc(C(F)(F)F)cc3[nH]ncc23)C2CCCCC21 (stereo not drawn) [Compound 340] | > 100 | > 100 | 3.24 to 31.6 | 32.4 to 100 | – | – | – | –
CC(=O)N(C)CC1CCN(c2cc(Cl)cc3[nH]ncc23)CC1 [Compound 282] | < 3.16 | 32.4 to 100 | < 3.16 | 3.24 to 31.6 | – | – | – | –
CCc1cc(C2CCN(S(C)(=O)=O)CC2)c2cn[nH]c2c1 [Compound 326] | < 3.16 | 3.24 to 31.6 | 3.24 to 31.6 | 3.24 to 31.6 | – | – | – | –
Cc1nc2c(o1)CN(c1cc(C(F)(F)F)cc3[nH]ncc13)CC2(C)C [Compound 434] | < 3.16 | > 100 | < 3.16 | > 100 | – | – | – | –
CS(=O)(=O)c1ccc(Oc2cc(Cl)cc3[nH]ncc23)cc1 [Compound 368] | 3.24 to 31.6 | > 100 | 3.24 to 31.6 | 3.24 to 31.6 | – | – | – | –
CC(C)Cn1cc(-c2cc(Cl)cc3[nH]ncc23)cn1 [Compound 396, 6-chloro-4-(1-isobutyl-1H-pyrazol-4-yl)-1H-indazole] | 3.24 to 31.6 | > 100 | < 3.16 | > 100 | 3.63 | > 257 | 0.832 | > 10
O=C1NC2(CCN(c3cc(Cl)cc4[nH]ncc34)CC2)C(=O)N1Cc1ccccc1 [Compound 331] | < 3.16 | < 3.16 | < 3.16 | < 3.16 | – | – | – | –
O=C1NC2(CCN(c3cc(Cl)cc4[nH]ncc34)CC2)C(=O)N1CCO [Compound 330] | < 3.16 | < 3.16 | < 3.16 | < 3.16 | – | – | – | –
CC(C)(O)c1cc(Cl)cc2[nH]ncc12 [Compound 259] | < 3.16 | > 100 | < 3.16 | 32.4 to 100 | – | – | – | –
NS(=O)(=O)N1CCC2(CCN(c3cc(Cl)cc4[nH]ncc34)CC2)CC1 [Compound 363] | < 3.16 | 32.4 to 100 | < 3.16 | 3.24 to 31.6 | – | – | – | –
CC(=O)N1CC2(C1)CN(c1cc(Cl)cc3[nH]ncc13)C2 [Compound 402] | < 3.16 | 32.4 to 100 | < 3.16 | < 3.16 | – | – | – | –
CNC(=O)CN1CCC(c2cc(Cl)cc3[nH]ncc23)CC1 [Compound 401] | < 3.16 | > 100 | < 3.16 | > 100 | – | – | – | –
CC(=O)NCCN1C(=O)NC2(CCN(c3cc(Cl)cc4[nH]ncc34)CC2)C1=O [Compound 412] | < 3.16 | < 3.16 | < 3.16 | > 100 | – | – | – | –
O=C1CN(c2cc(Cl)cc3[nH]ncc23)CCN1 [Compound 318] | 3.24 to 31.6 | > 100 | 3.24 to 31.6 | > 100 | – | – | – | –
